In patent US20110263647A1 (AMGEN INC., priority 2009, published 2011):
Counter-ions that a name gives are not always drawn. Like-named read-outs stand apart in the source and are kept apart here.

What was measured:
PKBα = biological target: T1, PKBα (Homo sapiens, UniProt P31749); experiment: PKB kinase assay (P33-labeled ATP, peptide substrate, filter plate); format: biochemical; conditions: with respect to PKBα
T1 construct: fused on or other part: His6 tag is likely on the Upstate products

[1] = In vivo pharmacokinetics, IV and oral gavage; parameters: species or system male Sprague-Dawley rats; conditions: rat; for FPO: Table 5; for Fpo (%): Table 6; for clearance / AUC(0-t) / Cmax / Vd: male, Sprague-Dawley, plasma; for Vd: read-out: Vss
Method in brief: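 Male Sprague-Dawley rats (n=3 per route) dosed 2 mg/kg IV in DMSO (fed) or 5 mg/kg by oral gavage in 1% Tween 80/2% HPMC, pH 2.0 (fasted). Serial plasma samples to 16 h quantified by LC-MS/MS. CL, Vss, AUC, t1/2 and %F derived by noncompartmental analysis.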

[2] = IV 2 mg/kg, read-out: IV AUClast
[3] = PO 5 mg/kg, read-out: Oral AUClast
[4] = PO 5 mg/kg, read-out: Oral Cmax

T1 sequence (P31749 118-472 limits assumed): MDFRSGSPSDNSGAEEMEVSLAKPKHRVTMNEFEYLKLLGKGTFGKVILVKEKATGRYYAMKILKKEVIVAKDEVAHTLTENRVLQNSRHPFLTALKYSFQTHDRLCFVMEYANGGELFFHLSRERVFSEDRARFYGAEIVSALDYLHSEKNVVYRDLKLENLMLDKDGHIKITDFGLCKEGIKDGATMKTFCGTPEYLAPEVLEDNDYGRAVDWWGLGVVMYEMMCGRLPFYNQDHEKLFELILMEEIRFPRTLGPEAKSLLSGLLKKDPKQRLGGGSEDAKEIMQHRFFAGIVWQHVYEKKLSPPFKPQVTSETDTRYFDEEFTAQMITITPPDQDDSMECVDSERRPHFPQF

With `CC(F)(F)c1ccc(C[C@H](N)CNc2ncc(-c3ccc4cnc(F)cc4c3)s2)cn1` [Example 7, N—((S)-2-Amino-3-(6-(1,1-difluoroethyl)pyridin-3-yl)propyl)-5-(3-fluoroisoquinolin-6-yl)thiazol-2-amine] the IC50 (PKBα) was < 0.05 µM, the FPO ([1]; PO 5 mg/kg, IV 2 mg/kg) was 42% and the “Fpo (%)” value ([1]; PO 5 mg/kg, IV 2 mg/kg) was 47%. It also gave a clearance ([1]; IV 2 mg/kg) of 1.33 L/h/kg, an AUC(0-t) [1, 2] of 1.44 µg·h/mL and a Cmax ([1]; IV 2 mg/kg, read-out: IV Cmax) of 0.432 µg/mL. For the same compound, the Vd ([1]; IV 2 mg/kg) was 6.22 L/kg, the AUC(0-t) [1, 3] was 1.5 µg·h/mL and the Cmax [1, 4] was 0.216 µg/mL.
For `N[C@H](CNc1ncc(-c2ccc3cnc(F)cc3c2)s1)Cc1ccc(Cl)c(F)c1` [Example 44, (2S)-3-(4-Chloro-3-fluorophenyl)-N-1-(5-(3-fluoro-6-isoquinoliny)-1,3-thiazol-2-yl)-1-2-propanediamine], the IC50 (PKBα) was < 0.05 µM, the FPO ([1]; PO 5 mg/kg, IV 2 mg/kg) was 65% and the “Fpo (%)” value ([1]; PO 5 mg/kg, IV 2 mg/kg) was 67%. It also gave a clearance ([1]; IV 2 mg/kg) of 0.492 L/h/kg, an AUC(0-t) [1, 2] of 2.03 µg·h/mL and a Cmax ([1]; IV 2 mg/kg, read-out: IV Cmax) of 0.292 µg/mL. It also gave a Vd ([1]; IV 2 mg/kg) of 11.4 L/kg, an AUC(0-t) [1, 3] of 3.29 µg·h/mL and a Cmax [1, 4] of 0.261 µg/mL.
In the case of `N[C@H](CNc1ncc(-c2ccc3cnc(F)cc3c2)s1)CN1CCC(C(F)(F)F)CC1` [Example 25, N—((R)-2-Amino-3-(4-(trifluoromethyl)piperidin-1-yl)propyl)-5-(3-fluoroisoquinolin-6-yl)thiazol-2-amine], the IC50 (PKBα) is reported as 0.05 to 1 µM, the FPO ([1]; PO 5 mg/kg, IV 2 mg/kg) is reported as 55% and the “Fpo (%)” value ([1]; PO 5 mg/kg, IV 2 mg/kg) is reported as 34%. It also gave a clearance ([1]; IV 2 mg/kg) of 1.8 L/h/kg, an AUC(0-t) [1, 2] of 1.1 µg·h/mL and a Cmax ([1]; IV 2 mg/kg, read-out: IV Cmax) of 0.396 µg/mL. For the same compound, the Vd ([1]; IV 2 mg/kg) was 9.88 L/kg, the AUC(0-t) [1, 3] was 1.51 µg·h/mL and the Cmax [1, 4] was 0.058 µg/mL.
For `N[C@H](CNc1ncc(-c2ccc3cnc(F)cc3c2)s1)[C@@H](CO)c1ccc(C(F)(F)F)cc1` [Example 33, (2S,3S)-3-Amino-4-(5-(3-fluoroisoquinolin-6-yl)thiazol-2-ylamino)-2-(4-(trifluoromethyl)phenyl)butan-1-ol], the IC50 (PKBα) was < 0.05 µM, the FPO ([1]; PO 5 mg/kg, IV 2 mg/kg) was 28% and the “Fpo (%)” value ([1]; PO 5 mg/kg, IV 2 mg/kg) was 28%. It also gave a clearance ([1]; IV 2 mg/kg) of 0.541 L/h/kg, an AUC(0-t) [1, 2] of 3.13 µg·h/mL and a Cmax ([1]; IV 2 mg/kg, read-out: IV Cmax) of 0.803 µg/mL. The Vd ([1]; IV 2 mg/kg) was 3.41 L/kg, the AUC(0-t) [1, 3] was 2.15 µg·h/mL and the Cmax [1, 4] was 0.268 µg/mL.
For `N[C@H](CCc1ncc(-c2ccc3cnc(F)cc3c2)s1)[C@@H](O)c1ccc(C(F)(F)F)cc1` [Example 36, (1S,2R)-2-Amino-4-(5-(3-fluoroisoquinolin-6-yl)thiazol-2-yl)-1-(4-(trifluoromethyl)phenyl)butan-1-ol trifluoroacetate], the IC50 (PKBα) was < 0.05 µM, the FPO ([1]; PO 5 mg/kg, IV 2 mg/kg) was 64% and the “Fpo (%)” value ([1]; PO 5 mg/kg, IV 2 mg/kg) was 66%. The clearance ([1]; IV 2 mg/kg) was 0.877 L/h/kg, the AUC(0-t) [1, 2] was 1.6 µg·h/mL and the Cmax ([1]; IV 2 mg/kg, read-out: IV Cmax) was 0.21 µg/mL. It also gave a Vd ([1]; IV 2 mg/kg) of 14.4 L/kg, an AUC(0-t) [1, 3] of 2.56 µg·h/mL and a Cmax [1, 4] of 0.206 µg/mL.
In the case of `CC(F)(F)c1ccc([C@H](O)[C@H](N)CNc2ncc(-c3ccc4cnc(F)cc4c3)s2)cc1` [Example 38, (1S,2R)-2-Amino-1-(4-(1,1-difluoroethyl)phenyl)-3-((5-(3-fluoro-6-isoquinolinyl)-1,3-thiazol-2-yl)amino)-1-propanol trifluoroacetate], the IC50 (PKBα) is reported as < 0.05 µM, the FPO ([1]; PO 5 mg/kg, IV 2 mg/kg) is reported as 36% and the “Fpo (%)” value ([1]; PO 5 mg/kg, IV 2 mg/kg) is reported as 45%. For the same compound, the clearance ([1]; IV 2 mg/kg) was 0.512 L/h/kg, the AUC(0-t) [1, 2] was 3.01 µg·h/mL and the Cmax ([1]; IV 2 mg/kg, read-out: IV Cmax) was 0.473 µg/mL. For the same compound, the Vd ([1]; IV 2 mg/kg) was 9.48 L/kg, the AUC(0-t) [1, 3] was 2.73 µg·h/mL and the Cmax [1, 4] was 0.1 µg/mL.
In the case of `COCc1nc(NC[C@@H](N)Cc2ccc(C(F)(F)F)nc2)sc1-c1ccc2cnc(F)cc2c1` [Example 18, N—((S)-2-Amino-3-(6-(trifluoromethyl)pyridin-3-yl)propyl)-5-(3-fluoroisoquinolin-6-yl)-4-(methoxymethyl)thiazol-2-amine], the IC50 (PKBα) is reported as < 0.05 µM, the FPO ([1]; PO 5 mg/kg, IV 2 mg/kg) is reported as 40% and the “Fpo (%)” value ([1]; PO 5 mg/kg, IV 2 mg/kg) is reported as 48%. The clearance ([1]; IV 2 mg/kg) was 1.06 L/h/kg, the AUC(0-t) [1, 2] was 1.64 µg·h/mL and the Cmax ([1]; IV 2 mg/kg, read-out: IV Cmax) was 0.422 µg/mL. For the same compound, the Vd ([1]; IV 2 mg/kg) was 8.08 L/kg, the AUC(0-t) [1, 3] was 1.64 µg·h/mL and the Cmax [1, 4] was 0.233 µg/mL.
For `N[C@H](CNc1ncc(-c2ccc3cnc(F)cc3c2)s1)Cc1ccc(C(F)(F)F)cc1` [Example 4, N—((S)-2-Amino-3-(4-(trifluoromethyl)phenyl)propyl)-5-(3-fluoroisoquinolin-6-yl)thiazol-2-amine trifluoroacetate], the IC50 (PKBα) was < 0.05 µM, the FPO ([1]; PO 5 mg/kg, IV 2 mg/kg) was 4% and the “Fpo (%)” value ([1]; PO 5 mg/kg, IV 2 mg/kg) was 65%. The clearance ([1]; IV 2 mg/kg) was 1.3 L/h/kg, the AUC(0-t) [1, 2] was 1.53 µg·h/mL and the Cmax ([1]; IV 2 mg/kg, read-out: IV Cmax) was 0.959 µg/mL. The Vd ([1]; IV 2 mg/kg) was 2.59 L/kg, the AUC(0-t) [1, 3] was 0.165 µg·h/mL and the Cmax [1, 4] was 0.025 µg/mL.
With `N[C@H](CNc1ncc(-c2ccc3cnc(F)cc3c2)s1)Cc1ccc(C(F)(F)F)nc1` [Example 2, (2S)—N-(5-(3-Fluoro-6-isoquinolinyl)-1,3-thiazol-2-yl)-3-(6-(trifluoromethyl)-3-pyridinyl)-1,2-propanediamine] the IC50 (PKBα) was < 0.05 µM, the FPO ([1]; PO 5 mg/kg, IV 2 mg/kg) was 40% and the “Fpo (%)” value ([1]; PO 5 mg/kg, IV 2 mg/kg) was 57%. The clearance ([1]; IV 2 mg/kg) was 0.728 L/h/kg, the AUC(0-t) [1, 2] was 2.37 µg·h/mL and the Cmax ([1]; IV 2 mg/kg, read-out: IV Cmax) was 0.531 µg/mL. It also gave a Vd ([1]; IV 2 mg/kg) of 5.19 L/kg, an AUC(0-t) [1, 3] of 2.38 µg·h/mL and a Cmax [1, 4] of 0.302 µg/mL.
For `C[C@@H](c1ccc(C(F)(F)F)cc1)[C@H](N)CNc1ncc(-c2ccc3cnc(F)cc3c2)s1` [Example 10, N-((2S,3S)-2-Amino-3-(4-(trifluoromethyl)phenyl)butyl)-5-(3-fluoroisoquinolin-6-yl)thiazol-2-amine], the IC50 (PKBα) was < 0.05 µM, the FPO ([1]; PO 5 mg/kg, IV 2 mg/kg) was 61% and the “Fpo (%)” value ([1]; PO 5 mg/kg, IV 2 mg/kg) was 52%. The clearance ([1]; IV 2 mg/kg) was 0.752 L/h/kg, the AUC(0-t) [1, 2] was 2.04 µg·h/mL and the Cmax ([1]; IV 2 mg/kg, read-out: IV Cmax) was 0.426 µg/mL. It also gave a Vd ([1]; IV 2 mg/kg) of 7.17 L/kg, an AUC(0-t) [1, 3] of 3.1 µg·h/mL and a Cmax [1, 4] of 0.316 µg/mL.
With `CC(F)(F)c1ccc(C[C@H](N)CCc2ncc(-c3ccc4cnc(F)cc4c3)s2)cn1` [Example 50] the IC50 (PKBα) was < 0.05 µM, the FPO ([1]; PO 5 mg/kg, IV 2 mg/kg) was 103% and the “Fpo (%)” value ([1]; PO 5 mg/kg, IV 2 mg/kg) was 85%. The clearance ([1]; IV 2 mg/kg) was 2.71 L/h/kg, the AUC(0-t) [1, 2] was 0.709 µg·h/mL and the Cmax ([1]; IV 2 mg/kg, read-out: IV Cmax) was 0.165 µg/mL. For the same compound, the Vd ([1]; IV 2 mg/kg) was 15.3 L/kg, the AUC(0-t) [1, 3] was 1.82 µg·h/mL and the Cmax [1, 4] was 0.228 µg/mL.
